Our source for the IC50 values is patent US20240246950A1, “Anilino-Pyrazole Derivatives, Compositions and Methods Thereof” (Ensem Therapeutics, priority 2022, published 2024).

One assay addresses CDK1/cyclinB (Homo sapiens, UniProt P06493). As to the kind of experiment: In vitro kinase TR-FRET assay CDK1/cyclinB. In kind it is biochemical. Particulars: enzyme 0.3 nM, ATP 56 μM. Put shortly:
(§1)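 Enzymes at 3 nM (CDK2/CycA2), 0.6 nM (CDK2/CycE1), 0.3 nM (CDK1/cyclinB), 0.6 nM (GSK3β) with ATP at 27, 82, 56, 7.6 μM respectively, 50 nM ULight-4E-BP1 peptide, HEPES pH7.5; 10-point 3-fold dilutions. 1 h reaction at room temperature; Eu-anti-phospho-4E-BP1 TR-FRET (665/615 nm) read; IC50 from dose-response curves.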
Background: TR-FRET usually uses a lanthanide donor and a delayed reading to cut background.

Another assay concerns the target CDK2/CycA2 (Homo sapiens, UniProt P24941). As to the kind of experiment: In vitro kinase TR-FRET assay CDK2/CycA2. The format is biochemical. Particulars: enzyme 3 nM, ATP 27 μM, read-out: CDK2 cyclinA2 activity assay: IC50. In a few lines: as §1
Another assay deals with CDK2/CycE1 (Homo sapiens, UniProt P24941). As to the kind of experiment: In vitro kinase TR-FRET assay CDK2/CycE1. The format is biochemical. Conditions: enzyme 0.6 nM, ATP 82 μM, read-out: CDK2 cyclinE1 activity assay: IC50. Put shortly:
as §1

The target of another assay is GSK3β (Homo sapiens, UniProt P49841). Put plainly: In vitro kinase TR-FRET assay GSK3β. The format is biochemical. Particulars: enzyme 0.6 nM, ATP 7.6 μM. Put shortly: as §1
The subject of the next assay is OVCAR3. As to the kind of experiment: Cell proliferation (CyQUANT) OVCAR3. The format is cell-based. Particulars: Homo sapiens, OVCAR-3, 168 h, OVCAR3, 7 days, read-out: Anti-proliferation assay: IC50 (nM) [Cell Line: OVCAR3]. In a few lines:
(§2)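 Cells were seeded at 2500, 1000 or 3000 cells/well, cultured overnight, then exposed to 3-fold compound dilutions for 7 days (final DMSO at most 0.01%). CyQUANT fluorescence was read at Ex/Em 480/520 nm; % inhibition computed relative to same-plate DMSO wells.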

The test system of a further assay is TOV21G. Put plainly: Cell proliferation (CyQUANT) TOV21G. In kind it is cell-based. Particulars: Homo sapiens, 168 h, 7 days, read-out: Anti-proliferation assay: IC50 (nM) [Cell Line: TOV21G]. In a few lines:
as §2

Molecules are shown by their SMILES. Where only a bound is given, the exact number is not on record here.

Sequence of GSK3β (P49841 whole entry, species assumed): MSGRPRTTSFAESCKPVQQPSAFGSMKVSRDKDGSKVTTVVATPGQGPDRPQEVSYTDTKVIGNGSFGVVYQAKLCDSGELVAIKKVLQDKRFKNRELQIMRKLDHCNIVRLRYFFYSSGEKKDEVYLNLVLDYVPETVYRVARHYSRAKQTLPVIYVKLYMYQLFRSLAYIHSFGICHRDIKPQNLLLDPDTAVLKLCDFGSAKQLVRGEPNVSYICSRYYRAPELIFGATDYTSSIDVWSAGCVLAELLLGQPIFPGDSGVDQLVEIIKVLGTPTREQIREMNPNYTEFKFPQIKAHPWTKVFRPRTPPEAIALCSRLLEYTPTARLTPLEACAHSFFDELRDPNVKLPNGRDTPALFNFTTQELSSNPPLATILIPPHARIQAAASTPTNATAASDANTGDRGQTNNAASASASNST
Sequence of CDK1/cyclinB (P06493 whole entry): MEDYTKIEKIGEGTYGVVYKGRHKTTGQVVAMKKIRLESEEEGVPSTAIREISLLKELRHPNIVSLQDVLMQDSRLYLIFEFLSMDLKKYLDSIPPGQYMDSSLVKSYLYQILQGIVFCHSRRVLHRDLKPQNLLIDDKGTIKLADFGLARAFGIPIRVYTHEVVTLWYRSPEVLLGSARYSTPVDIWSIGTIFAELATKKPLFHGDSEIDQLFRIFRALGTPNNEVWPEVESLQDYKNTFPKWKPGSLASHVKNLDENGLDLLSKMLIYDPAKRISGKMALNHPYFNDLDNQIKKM
Sequence of CDK1/cyclinB (P14635 whole entry partner): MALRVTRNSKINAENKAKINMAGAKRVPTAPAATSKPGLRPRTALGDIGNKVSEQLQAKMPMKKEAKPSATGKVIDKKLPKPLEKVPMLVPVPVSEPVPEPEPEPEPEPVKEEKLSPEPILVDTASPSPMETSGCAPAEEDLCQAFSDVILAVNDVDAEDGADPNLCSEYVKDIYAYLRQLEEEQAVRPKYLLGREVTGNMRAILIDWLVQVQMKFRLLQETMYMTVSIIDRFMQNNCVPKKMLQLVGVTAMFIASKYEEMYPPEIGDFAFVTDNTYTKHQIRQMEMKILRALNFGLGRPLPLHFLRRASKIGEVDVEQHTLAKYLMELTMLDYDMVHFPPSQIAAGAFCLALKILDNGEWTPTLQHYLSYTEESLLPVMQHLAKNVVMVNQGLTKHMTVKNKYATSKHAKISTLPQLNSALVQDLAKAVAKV

With `CC(C)NC(=O)O[C@@H]1CC[C@H](c2cc(Nc3cccc4c3CCN(C)S4(=O)=O)[nH]n2)C1` [Example 56, (1R,3S)-3-{5-[(2-methyl-1,1-dioxo-3,4-dihydro-2H-1λ6-benzo[2,1-e][1,2]thiazin-5-yl)amino]-1H-pyrazol-3-yl}cyclopentyl (prop-2-ylamino)methanoate], the IC50 at CDK1/cyclinB is 50 to 500 nM; at CDK2/CycA2 it was < 50 nM; on CDK2/CycE1 it was < 50 nM; at GSK3β, 50 to 500 nM; in the assay with OVCAR3 it was ≤ 500 nM; in the assay on TOV21G, ≥ 1000 nM.
`CC(C)NC(=O)O[C@@H]1CC[C@H](c2cc(Nc3ccc4c(c3)C(=O)NS4(=O)=O)[nH]n2)C1` [Example 5, (1R,3S)-3-(5-((1,1-dioxido-3-oxo-2,3-dihydrobenzo[d]isothiazol-5-yl)amino)-1H-pyrazol-3-yl)cyclopentyl isopropylcarbamate]: the IC50 at CDK1/cyclinB was > 1000 nM; on CDK2/CycA2, < 50 nM; on CDK2/CycE1 it was < 50 nM; against GSK3β it was 500 to 1000 nM; in the assay with OVCAR3, ≥ 1000 nM; in the assay with TOV21G, ≥ 1000 nM.
For the compound `Cc1ccc(Nc2cc([C@H]3CC[C@@H](OC(=O)NC(C)C)C3)[nH]n2)c2c1S(=O)(=O)CC2` [Example 65, (1R,3S)-3-(3-((7-methyl-1,1-dioxido-2,3-dihydrobenzo[b]thiophen-4-yl)amino)-1H-pyrazol-5-yl)cyclopentyl isopropylcarbamate], the IC50 is 50 to 500 nM against CDK1/cyclinB; < 50 nM at CDK2/CycA2; < 50 nM at CDK2/CycE1; 50 to 500 nM against GSK3β; ≤ 500 nM in the assay on OVCAR3; 500 to 1000 nM in the assay with TOV21G.
Consider `CC(C)NC(=O)O[C@@H]1CC[C@H](c2cc(Nc3ccc4c(c3)CCCS4(=O)=O)n[nH]2)C1` [Example 26, (1R,3S)-3-(3-((1,1-dioxidothiochroman-6-yl)amino)-1H-pyrazol-5-yl)cyclopentyl isopropylcarbamate], for which the IC50 at CDK1/cyclinB is 50 to 500 nM; on CDK2/CycA2 it was < 50 nM; on CDK2/CycE1, < 50 nM; at GSK3β, 50 to 500 nM; in the assay with OVCAR3, ≤ 500 nM; in the assay with TOV21G, ≥ 1000 nM.
Regarding `CC(C)NC(=O)O[C@@H]1CC[C@H](c2cc(Nc3cccc4c3CS(=O)(=O)C4)n[nH]2)C1` [Example 40, (1R,3S)-3-{5-[(2,2-dioxo-1,3-dihydro-2λ^6-benzo[c]thiophen-4-yl)amino]-2H-pyrazol-3-yl}cyclopentyl (prop-2-ylamino)methanoate], the IC50 on CDK1/cyclinB is 50 to 500 nM; at CDK2/CycA2, < 50 nM; on CDK2/CycE1, < 50 nM; on GSK3β it was > 1000 nM; in the assay on OVCAR3, ≤ 500 nM; with TOV21G, ≥ 1000 nM.
`CC(C)NC(=O)O[C@@H]1CC[C@H](c2cc(Nc3ccc(F)c4c3CCS4(=O)=O)n[nH]2)C1` [Example 50, (1R,3S)-3-{5-[(7-fluoro-1,1-dioxo-2,3-dihydro-1λ^6-benzothiophen-4-yl)amino]-2H-pyrazol-3-yl}cyclopentyl (prop-2-ylamino)methanoate]: the IC50 is 50 to 500 nM on CDK1/cyclinB; < 50 nM on CDK2/CycA2; < 50 nM on CDK2/CycE1; 50 to 500 nM on GSK3β; ≤ 500 nM in the assay on OVCAR3; ≤ 500 nM with TOV21G.
With `CC(C)NC(=O)O[C@@H]1CC[C@H](c2cc(Nc3cccc4c3CCS4(=O)=O)n[nH]2)C1` [Example 36, (1R,3S)-3-(3-((1,1-dioxido-2,3-dihydrobenzo[b]thiophen-4-yl)amino)-1H-pyrazol-5-yl)cyclopentyl isopropylcarbamate], the IC50 is 50 to 500 nM at CDK1/cyclinB; < 50 nM at CDK2/CycA2; < 50 nM at CDK2/CycE1; 50 to 500 nM against GSK3β; ≤ 500 nM in the assay with OVCAR3; ≤ 500 nM with TOV21G.
With `CC(C)NC(=O)O[C@@H]1CC[C@H](c2cc(Nc3ccc4c(c3)CC(F)(F)C4)n[nH]2)C1` [Example 32, (1R,3S)-3-(3-((2,2-difluoro-2,3-dihydro-1H-inden-5-yl)amino)-1H-pyrazol-5-yl)cyclopentyl isopropylcarbamate], the IC50 was 50 to 500 nM on CDK1/cyclinB; < 50 nM on CDK2/CycA2; < 50 nM on CDK2/CycE1; 500 to 1000 nM on GSK3β; ≤ 500 nM in the assay with OVCAR3; ≥ 1000 nM in the assay with TOV21G.
Take `CC(C)NC(=O)O[C@@H]1CC[C@H](c2cc(Nc3ccc4c(c3)CCC4C#N)n[nH]2)C1` (stereo partly drawn) [Example 29, (1R,3S)-3-{5-[(1-cyano-2,3-dihydro-1H-inden-5-yl)amino]-2H-pyrazol-3-yl}cyclopentyl (prop-2-ylamino)methanoate]: the IC50 against CDK1/cyclinB was 50 to 500 nM; at CDK2/CycA2 it was < 50 nM; on CDK2/CycE1 it was < 50 nM; on GSK3β, 50 to 500 nM; with OVCAR3, 500 to 1000 nM; in the assay on TOV21G it was ≥ 1000 nM.
Take `CC(C)NC(=O)O[C@@H]1CC[C@H](c2cc(Nc3cccc4c3CCNS4(=O)=O)n[nH]2)C1` [Example 61, (1R,3S)-3-(3-((1,1-dioxido-3,4-dihydro-2H-benzo[e][1,2]thiazin-5-yl)amino)-1H-pyrazol-5-yl)cyclopentyl isopropylcarbamate]: the IC50 against CDK1/cyclinB is < 50 nM; at CDK2/CycA2 it was < 50 nM; at CDK2/CycE1, < 50 nM; against GSK3β, 500 to 1000 nM; in the assay with OVCAR3, ≤ 500 nM; in the assay with TOV21G, ≤ 500 nM.
As for `CC(C)NC(=O)O[C@@H]1CC[C@H](c2cc(Nc3ccc4c(c3)CNC4=O)n[nH]2)C1` [Example 8, (1R,3S)-3-(3-((1-oxoisoindolin-5-yl)amino)-1H-pyrazol-5-yl)cyclopentyl isopropylcarbamate], the IC50 was 500 to 1000 nM against CDK1/cyclinB; < 50 nM on CDK2/CycA2; < 50 nM at CDK2/CycE1; 500 to 1000 nM on GSK3β; ≥ 1000 nM in the assay on OVCAR3; ≥ 1000 nM in the assay on TOV21G.
Consider `CC(C)NC(=O)O[C@H]1CC[C@@H](c2cc(Nc3ccc4c(c3)CS(=O)(=O)C4)n[nH]2)CC1` [Example 33, (1s,4s)-4-(3-((2,2-dioxido-1,3-dihydrobenzo[c]thiophen-5-yl)amino)-1H-pyrazol-5-yl)cyclohexyl isopropylcarbamate], for which the IC50 is < 50 nM at CDK1/cyclinB; < 50 nM on CDK2/CycA2; < 50 nM on CDK2/CycE1; > 1000 nM against GSK3β; ≤ 500 nM in the assay with OVCAR3; ≤ 500 nM with TOV21G.
As for `CC(C)NC(=O)O[C@@H]1CC[C@H](c2cc(Nc3cccc4c3CN(C)S4(=O)=O)n[nH]2)C1` [Example 47, (1R,3S)-3-(3-((2-methyl-1,1-dioxido-2,3-dihydrobenzo[d]isothiazol-4-yl)amino)-1H-pyrazol-5-yl)cyclopentyl isopropylcarbamate], the IC50 was 50 to 500 nM at CDK1/cyclinB; < 50 nM at CDK2/CycA2; < 50 nM on CDK2/CycE1; > 1000 nM against GSK3β; ≤ 500 nM in the assay on OVCAR3; ≤ 500 nM in the assay on TOV21G.
Turning to `CC(C)NC(=O)O[C@H]1C[C@@H](c2cc(Nc3ccc4c(c3)CS(=O)(=O)C4)n[nH]2)C1` [Example 28, (1s,3s)-3-(3-((2,2-dioxido-1,3-dihydrobenzo[c]thiophen-5-yl)amino)-1H-pyrazol-5-yl)cyclobutyl isopropylcarbamate], the IC50 at CDK1/cyclinB is < 50 nM; at CDK2/CycA2 it was < 50 nM; at CDK2/CycE1 it was < 50 nM; at GSK3β, 50 to 500 nM; in the assay with OVCAR3, ≤ 500 nM; with TOV21G, ≤ 500 nM.
Consider `CC(C)(C)NC(=O)O[C@@H]1CC[C@H](c2cc(Nc3nccc4c3CCS4(=O)=O)n[nH]2)C1` [Example 68, (1R,3S)-3-(3-((1,1-dioxido-2,3-dihydrothieno[3,2-c]pyridin-4-yl)amino)-1H-pyrazol-5-yl)cyclopentyl tert-butylcarbamate], for which the IC50 against CDK1/cyclinB is < 50 nM; on CDK2/CycA2, < 50 nM; on CDK2/CycE1, < 50 nM; at GSK3β it was 50 to 500 nM; in the assay with OVCAR3, ≤ 500 nM; with TOV21G, ≤ 500 nM.
For `CC(C)NC(=O)O[C@@H]1CC[C@H](c2cc(Nc3ccc4c(c3)N(C)S(=O)(=O)C4)n[nH]2)C1` [Example 41, (1R,3S)-3-{5-[(1-methyl-2,2-dioxo-1,3-dihydro-2X^6-benzo[2,1-c][1,2]thiazol-6-yl)amino]-2H-pyrazol-3-yl}cyclopentyl (prop-2-ylamino)methanoate], the IC50 is 50 to 500 nM on CDK1/cyclinB; < 50 nM at CDK2/CycA2; < 50 nM on CDK2/CycE1; 500 to 1000 nM on GSK3β; ≤ 500 nM in the assay with OVCAR3; ≤ 500 nM in the assay on TOV21G.
For the compound `CC(C)NC(=O)O[C@@H]1CC[C@H](c2cc(Nc3ccc(F)c4c3CNS4(=O)=O)[nH]n2)C1` [Example 66, (1R,3S)-3-(5-((7-fluoro-1,1-dioxido-2,3-dihydrobenzo[d]isothiazol-4-yl)amino)-1H-pyrazol-3-yl)cyclopentyl isopropylcarbamate], the IC50 against CDK1/cyclinB was < 50 nM; at CDK2/CycA2, < 50 nM; on CDK2/CycE1 it was < 50 nM; against GSK3β, 50 to 500 nM; with OVCAR3, ≤ 500 nM; with TOV21G, ≥ 1000 nM.
